Assays:
Nonstructural protein 5 [1] = target: T1, Nonstructural protein 5 (Dengue virus, UniProt V5TFZ2); assay: Inhibition of DENV3 NS5 RdRp using ss-RNA PolyC as template and GTP as substrate assessed as decrease in dsRNA levels after 1 hr by PicoGreen-based fluorescence assay; parameters: species or system dengue virus type 3
Nonstructural protein 5 [2] = target: T1, Nonstructural protein 5; assay: Inhibition of DENV3 full length NS5 RdRp assessed as decrease in dsRNA levels preincubated for 20 mins followed by ss-RNA and ATTO-CTP, ATP, GTP and UTP addition measured after 120 mins by FAPA assay; parameters: species or system dengue virus type 3
Nonstructural protein 5 [3] = target: T1, Nonstructural protein 5; assay: Mixed type inhibition of DENV3 NS5 RdRp using increasing concentration of ss-RNA PolyC as template assessed as free enzyme after 1 hr in presence of GTP substrate by Lineweaver-Burk double reciprocal plot analysis; parameters: species or system dengue virus type 3
Nonstructural protein 5 [4] = target: T1, Nonstructural protein 5; assay: Mixed type inhibition of DENV3 NS5 RdRp using increasing concentration of ss-RNA PolyC as template assessed as enzyme-substrate complex after 1 hr in presence of GTP substrate by Lineweaver-Burk double reciprocal plot analysis; parameters: species or system dengue virus type 3
Nonstructural protein 5 [5] = target: T1, Nonstructural protein 5; assay: Mixed type inhibition of DENV3 NS5 RdRp using increasing concentration of GTP as substrate assessed as free enzyme after 1 hr in presence of ss-RNA PolyC template by Lineweaver-Burk double reciprocal plot analysis; parameters: species or system dengue virus type 3
Nonstructural protein 5 [6] = target: T1, Nonstructural protein 5; assay: Mixed type inhibition of DENV3 NS5 RdRp using increasing concentration of GTP as substrate assessed as enzyme-substrate complex after 1 hr in presence of ss-RNA PolyC template by Lineweaver-Burk double reciprocal plot analysis; parameters: species or system dengue virus type 3
Nonstructural protein 5 [7] = target: T1, Nonstructural protein 5; assay: Binding affinity to DENV3 NT-647-NHS labeled NS5 RdRp after 1 hr by microscale thermophoresis method; parameters: species or system dengue virus type 3
[8] = Cytotoxicity against African green monkey Vero E6 cells by Cell Titer-blue method; format: cell-based, Vero C1008; conditions: chlorocebus sabaeus
[9] = Induction of colloidal aggregate formation in aqueous medium at 50 uM measured for 5 mins by light scattering-based photon correlation spectroscopy; format: physicochemical; conditions: buffer

T1 sequence (V5TFZ2 whole entry): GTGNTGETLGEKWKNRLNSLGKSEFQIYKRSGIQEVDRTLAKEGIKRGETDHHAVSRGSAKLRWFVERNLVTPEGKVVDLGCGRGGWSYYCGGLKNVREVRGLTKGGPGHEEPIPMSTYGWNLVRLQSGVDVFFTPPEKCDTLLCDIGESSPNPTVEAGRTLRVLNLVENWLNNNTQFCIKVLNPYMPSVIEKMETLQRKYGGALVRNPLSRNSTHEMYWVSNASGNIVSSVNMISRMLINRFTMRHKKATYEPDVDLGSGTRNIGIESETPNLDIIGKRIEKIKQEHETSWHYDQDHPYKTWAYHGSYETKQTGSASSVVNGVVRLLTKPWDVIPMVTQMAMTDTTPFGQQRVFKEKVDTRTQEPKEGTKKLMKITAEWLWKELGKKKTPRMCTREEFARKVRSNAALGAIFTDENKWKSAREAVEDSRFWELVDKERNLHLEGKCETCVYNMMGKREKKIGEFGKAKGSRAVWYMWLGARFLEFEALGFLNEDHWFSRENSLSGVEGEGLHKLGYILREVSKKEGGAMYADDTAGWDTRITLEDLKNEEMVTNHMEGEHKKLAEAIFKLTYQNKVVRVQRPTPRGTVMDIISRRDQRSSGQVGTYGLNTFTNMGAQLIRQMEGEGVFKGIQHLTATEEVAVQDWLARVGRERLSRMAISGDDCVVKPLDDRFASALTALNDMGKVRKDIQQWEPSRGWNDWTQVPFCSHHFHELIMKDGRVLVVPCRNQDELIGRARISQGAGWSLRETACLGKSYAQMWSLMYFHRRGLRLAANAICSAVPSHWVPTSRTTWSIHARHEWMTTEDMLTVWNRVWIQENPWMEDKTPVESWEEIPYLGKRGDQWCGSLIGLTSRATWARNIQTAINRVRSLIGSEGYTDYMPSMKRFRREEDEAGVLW

Compound	IC50 (Nonstructural protein 5 [1])	further results
CN1c2c(C(=O)Nc3ccc(NS(C)(=O)=O)cc3)nn(-c3cccc(F)c3)c2-c2ccccc2S1(=O)=O	17.3 µM	–
CN1c2c(C(=O)Nc3ccc(NS(C)(=O)=O)cc3)nn(-c3ccc(Cl)cc3)c2-c2ccccc2S1(=O)=O	13.6 µM	–
Cc1ccc(-n2nc(C(=O)Nc3ccc(NS(C)(=O)=O)cc3)c3c2-c2ccccc2S(=O)(=O)N3C)cc1	14.1 µM	–
CCOC1=CS(=O)(=O)Nc2ccc(Oc3ccccc3Br)cc21	41.5 µM	–
O=C(OC1=CS(=O)(=O)Nc2ccc(Oc3cccc(Br)c3)cc21)c1ccccc1	7 µM	–
COC1=CS(=O)(=O)N(C(=O)c2ccccc2)c2ccc(Oc3ccccc3Br)cc21	46.2 µM	–
CCc1cccc(Oc2ccc3c(c2)C(OC(=O)c2ccccc2)=CS(=O)(=O)N3)c1	6.9 µM	–
O=C(O)c1cc(Oc2cccc(Br)c2)ccc1NS(=O)(=O)c1ccc([N+](=O)[O-])cc1	1.7 µM	–
COc1cc(C)c(C(=O)NS(=O)(=O)c2cccc3cccnc23)cc1-c1ccc(C#CCO)s1	–	IC50 (Nonstructural protein 5 [2]): 0.016 µM
COc1ccc(C(=O)OC2=CS(=O)(=O)Nc3ccc(Oc4ccccc4Br)cc32)cc1[N+](=O)[O-]	6.3 µM	–
O=C1CCN(C(=O)c2ccccc2)c2ccc(Oc3ccccc3Br)cc21	> 50 µM	–
O=C(OC1=CS(=O)(=O)Nc2ccc(Oc3ccccc3Br)cc21)c1ccccc1	30.8 µM	–
COC1=CS(=O)(=O)Nc2ccc(Oc3ccccc3Br)cc21	> 50 µM	–
O=C(OC1=CS(=O)(=O)Nc2ccc(Oc3ccccc3Br)cc21)c1ccc(F)c(F)c1	0.6 µM	Ki (Nonstructural protein 5 [3]): 1.54 µM; Ki (Nonstructural protein 5 [4]): 4.33 µM; Ki (Nonstructural protein 5 [5]): 0.252 µM; Ki (Nonstructural protein 5 [6]): 1.58 µM; Kd (Nonstructural protein 5 [7]): 1.1 µM; CC50 [8]: 80 µM; Activity [9]: Not Active
O=C(OC1=CS(=O)(=O)Nc2ccc(Oc3cccc(Br)c3)cc21)c1cccc([N+](=O)[O-])c1	8.4 µM	–
O=C1CS(=O)(=O)N(C(=O)c2ccccc2)c2ccc(Oc3ccccc3Br)cc21	11.4 µM	–
O=C(OC1=CS(=O)(=O)Nc2ccc(Oc3cccc(Br)c3)cc21)c1ccc(F)c(F)c1	0.9 µM	–
O=C(OC1=CS(=O)(=O)Nc2ccc(Oc3cccc(F)c3)cc21)c1ccccc1	7 µM	–

Continued, in another order:

IC50 (Nonstructural protein 5 [1])	Compound	further results
15.8 µM	CC(C)(C)c1cccc(Oc2ccc3c(c2)C(OC(=O)c2ccccc2)=CS(=O)(=O)N3)c1	–
2.6 µM	CN1c2ccc(Oc3cccc(Br)c3)cc2C(OC(=O)c2ccccc2)=CS1(=O)=O	–
4.7 µM	COc1ccc(C(=O)OC2=CS(=O)(=O)Nc3ccc(Oc4cccc(Br)c4)cc32)cc1[N+](=O)[O-]	–
4.7 µM	O=C(OC1=CS(=O)(=O)Nc2ccc(Oc3ccc(Br)cc3)cc21)c1ccccc1	–
4.5 µM	O=C(O)c1cc(Oc2cccc(Br)c2)ccc1NS(=O)(=O)c1ccccc1	–
20.3 µM	COc1cccc(Oc2ccc3c(c2)C(OC(=O)c2ccccc2)=CS(=O)(=O)N3)c1	–
